Experimental data taken from patent US20020026053A1, “Novel 3-(substituted) -2- indolinones compounds and use thereof as inhibitors of protein kinase activity” (priority 1997, published 2002).

Assays:
[1] = system: FLK-1 receptor; experiment: FLK-1 Assay (cellular/catalytic ELISA, VEGF-stimulated phosphotyrosine); format: cell-based; set-up: concentration or dose not given beside the values
Outline: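 NIH3T3 C7#3 cells engineered to express Flk-1 were serum-starved overnight (0.1% FBS), then exposed to compound for 2 h at 37 °C (final dilution 1:200, 0.5% DMSO) before VEGF stimulation. Lysates captured on anti-FLK-1 antiserum plates; phosphotyrosine detected by UB40 antibody/POD-ABTS ELISA versus untreated controls.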

[2] = system: PDGF-R; experiment: PDGF-R Assay (cellular ELISA, U1242 cells); format: cell-based; set-up: concentration or dose not given beside the values
Outline: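 U1242 cells seeded in 0.5% serum, serum-starved, then exposed to compound for 2 hr at 37°C before 5–10 min ligand stimulation and lysis in HNTG. Lysate captured on receptor-antibody-coated plates; phosphotyrosine detected with polyclonal anti-pTyr, goat anti-rabbit IgG and ABTS/H2O2, A410 (ref 630 nm), versus untreated cells.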

## O=C1Nc2ccc(S(=O)(=O)Nc3ccc(C(F)(F)F)cc3)cc2C1=Cc1ccccc1C(F)(F)F [10736/E03]
[1]
  Flk Kinase % Inhibition (P.110): 17.7%
[2]
  PDGF Kinase % Inhibition (P.119): 96.1%

## Cc1cccc(C=C2C(=O)Nc3ccc(S(=O)(=O)Nc4ccc(C(F)(F)F)cc4)cc32)c1 [10736/E04]
[1]
  Flk Kinase % Inhibition (P.110): 22.6%
[2]
  PDGF Kinase % Inhibition (P.119): 24.6%

## Cc1ccc(C=C2C(=O)Nc3ccc(S(=O)(=O)Nc4ccc(C(F)(F)F)cc4)cc32)cc1 [10736/E05]
[1]
  Flk Kinase % Inhibition (P.110): 30.2%
[2]
  PDGF Kinase % Inhibition (P.119): 18.5%

## O=C1Nc2ccc(S(=O)(=O)Nc3ccc(C(F)(F)F)cc3)cc2C1=Cc1cccc(Cl)c1 [10736/E06]
[1]
  Flk Kinase % Inhibition (P.110): 20.1%
[2]
  PDGF Kinase % Inhibition (P.119): 10.6%

## O=C1Nc2ccc(S(=O)(=O)Nc3ccc(C(F)(F)F)cc3)cc2C1=Cc1cccc(F)c1 [10736/E07]
[1]
  Flk Kinase % Inhibition (P.110): 15.3%
[2]
  PDGF Kinase % Inhibition (P.119): 18.5%

## O=C1Nc2ccc(S(=O)(=O)Nc3ccc(C(F)(F)F)cc3)cc2C1=Cc1ccccc1F [10736/E08]
[1]
  Flk Kinase % Inhibition (P.110): 19.3%
[2]
  PDGF Kinase % Inhibition (P.119): 7.9%

## CCc1ccc(C=C2C(=O)Nc3ccc(S(=O)(=O)Nc4ccc(C(F)(F)F)cc4)cc32)cc1 [10736/E09]
[1]
  Flk Kinase % Inhibition (P.110): 14.1%
[2]
  PDGF Kinase % Inhibition (P.119): −0.4%

## COc1cccc(C=C2C(=O)Nc3ccc(S(=O)(=O)Nc4ccc(C(F)(F)F)cc4)cc32)c1 [10736/E10]
[1]
  Flk Kinase % Inhibition (P.110): 27.2%
[2]
  PDGF Kinase % Inhibition (P.119): 26.8%

## O=C1Nc2ccc(S(=O)(=O)Nc3ccc(C(F)(F)F)cc3)cc2C1=Cc1ccccc1Cl [10736/E11]
[1]
  Flk Kinase % Inhibition (P.110): 20.5%
[2]
  PDGF Kinase % Inhibition (P.119): 0.9%

## O=C1Nc2ccc(S(=O)(=O)N3CCOCC3)cc2C1=Cc1ccc(Cl)cc1 [10736/F02]
[1]
  Flk Kinase % Inhibition (P.110): 23.9%
[2]
  PDGF Kinase % Inhibition (P.119): −14.4%

## O=C1Nc2ccc(S(=O)(=O)N3CCOCC3)cc2C1=Cc1ccccc1C(F)(F)F [10736/F03]
[1]
  Flk Kinase % Inhibition (P.110): 16.6%
[2]
  PDGF Kinase % Inhibition (P.119): −3.0%

## Cc1cccc(C=C2C(=O)Nc3ccc(S(=O)(=O)N4CCOCC4)cc32)c1 [10736/F04]
[1]
  Flk Kinase % Inhibition (P.110): 16.5%
[2]
  PDGF Kinase % Inhibition (P.119): 3.6%

## Cc1ccc(C=C2C(=O)Nc3ccc(S(=O)(=O)N4CCOCC4)cc32)cc1 [10736/F05]
[1]
  Flk Kinase % Inhibition (P.110): 15.1%
[2]
  PDGF Kinase % Inhibition (P.119): −4.8%

## O=C1Nc2ccc(S(=O)(=O)N3CCOCC3)cc2C1=Cc1cccc(Cl)c1 [10736/F06]
[1]
  Flk Kinase % Inhibition (P.110): 14.5%
[2]
  PDGF Kinase % Inhibition (P.119): 12.3%

## O=C1Nc2ccc(S(=O)(=O)N3CCOCC3)cc2C1=Cc1cccc(F)c1 [10736/F07]
[1]
  Flk Kinase % Inhibition (P.110): 16.6%
[2]
  PDGF Kinase % Inhibition (P.119): −4.3%

## O=C1Nc2ccc(S(=O)(=O)N3CCOCC3)cc2C1=Cc1ccccc1F [10736/F08]
[1]
  Flk Kinase % Inhibition (P.110): 7.4%
[2]
  PDGF Kinase % Inhibition (P.119): −20.1%

## CCc1ccc(C=C2C(=O)Nc3ccc(S(=O)(=O)N4CCOCC4)cc32)cc1 [10736/F09]
[1]
  Flk Kinase % Inhibition (P.110): 24.0%
[2]
  PDGF Kinase % Inhibition (P.119): 2.7%
